Measurements: ChEMBL document CHEMBL1137324, “Novel selective orally active CRTH2 antagonists for allergic inflammation developed from in silico derived hits” (J Med Chem, 2006)

What was measured:
[1] = Permeability from basolateral to apical side of Caco-2 cells; assay type: ADME, cell-based; settings: human, read-out: permeability
[2] = Bioavailability in rat; assay type: ADME, organism-based; settings: in vivo
[3] = target: T1, Prostaglandin D2 receptor 2 (Homo sapiens, UniProt Q9Y5Y4); test: Displacement of [3H]PGD2 from human CRTH2 receptor expressed in HEK293 cells; assay type: cell-based
T1 sequence (Q9Y5Y4 whole entry): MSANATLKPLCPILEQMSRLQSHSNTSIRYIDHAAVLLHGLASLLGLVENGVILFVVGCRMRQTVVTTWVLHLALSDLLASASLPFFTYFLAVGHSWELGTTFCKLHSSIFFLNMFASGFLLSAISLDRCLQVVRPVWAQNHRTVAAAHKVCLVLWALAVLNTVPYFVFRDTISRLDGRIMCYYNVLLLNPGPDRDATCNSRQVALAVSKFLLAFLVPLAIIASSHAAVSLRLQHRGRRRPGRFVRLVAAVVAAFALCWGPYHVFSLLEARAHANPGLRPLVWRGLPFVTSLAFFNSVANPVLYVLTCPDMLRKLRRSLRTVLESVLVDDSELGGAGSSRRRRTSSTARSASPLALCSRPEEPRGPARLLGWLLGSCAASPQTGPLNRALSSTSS

[4] = target: T1, Prostaglandin D2 receptor 2; test: Antagonist activity against CRTH2 receptor measured as inhibition of PGD2-induced beta-arrestin translocation in HEK293 cells by BRET assay; assay type: functional, cell-based
[5] = system: Mus musculus; test: Inhibition of peribronchial eosinophilia in BALB/c mouse at 30 mg/kg, po relative to control; assay type: functional
[6] = target: Adenosine receptor A2a (Homo sapiens) (UniProt P29274); test: Inhibition of human A2A receptor at 10 uM
[7] = target: Adrenergic receptor alpha-1 (Homo sapiens) (UniProt P35348+P25100+P35368); test: Inhibition of alpha1 receptor at 10 uM; assay type: protein assay
[8] = target: Glutamate [NMDA] receptor (Homo sapiens) (UniProt Q05586+Q12879+Q13224+O15399+O60391+Q14957+Q8TCU5); test: Inhibition of human NMDA receptor at 10 uM; assay type: protein-complex assay
[9] = target: Melanin-concentrating hormone receptor 1 (Homo sapiens) (UniProt Q99705); test: Inhibition of human MCH1 receptor at 10 uM
[10] = species: Homo sapiens; test: Inhibition of human Y receptor at 10 uM
[11] = Inhibition of neuronal nicotinic receptor at 10 uM
[12] = target: Serotonin (5-HT) receptor (Homo sapiens) (UniProt P30939+P41595+Q13639+P28222+P46098+P08908+P28221+P28223+P28335+P28566+P34969+P50406+P47898+A5X5Y0+O95264+Q70Z44+Q8WXA8); test: Inhibition of 5-HT receptor at 10 uM; assay type: protein assay
[13] = target: Somatostatin receptor (Homo sapiens) (UniProt P35346+P30874+P31391+P30872+P32745); test: Inhibition of sst receptor at 10 uM; assay type: protein assay
[14] = target: Vasopressin V1a receptor (Homo sapiens) (UniProt P37288); test: Inhibition of human V1a receptor at 10 uM
[15] = target: Sodium-dependent serotonin transporter (Homo sapiens) (UniProt P31645); test: Inhibition of human 5-HT transporter at 10 uM
Sequence of Sodium-dependent serotonin transporter (Homo sapiens) (P31645 whole entry, looked up): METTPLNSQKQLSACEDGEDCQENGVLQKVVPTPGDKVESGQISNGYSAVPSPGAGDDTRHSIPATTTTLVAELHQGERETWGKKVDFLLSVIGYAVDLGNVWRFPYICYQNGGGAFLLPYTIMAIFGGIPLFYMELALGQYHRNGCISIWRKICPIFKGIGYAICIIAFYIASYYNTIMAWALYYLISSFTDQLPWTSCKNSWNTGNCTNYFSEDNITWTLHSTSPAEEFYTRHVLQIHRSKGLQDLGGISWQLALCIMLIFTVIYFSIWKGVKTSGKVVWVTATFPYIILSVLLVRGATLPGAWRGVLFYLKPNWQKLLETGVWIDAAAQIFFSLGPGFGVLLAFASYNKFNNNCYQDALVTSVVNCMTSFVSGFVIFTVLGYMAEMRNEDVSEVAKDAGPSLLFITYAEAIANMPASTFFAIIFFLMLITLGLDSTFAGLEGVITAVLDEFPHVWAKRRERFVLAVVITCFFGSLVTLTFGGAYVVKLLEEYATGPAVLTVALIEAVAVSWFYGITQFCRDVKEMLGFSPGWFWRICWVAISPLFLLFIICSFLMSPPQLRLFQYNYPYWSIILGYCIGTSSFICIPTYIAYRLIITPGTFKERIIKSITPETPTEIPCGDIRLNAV

Sequence of Melanin-concentrating hormone receptor 1 (Homo sapiens) (Q99705 whole entry): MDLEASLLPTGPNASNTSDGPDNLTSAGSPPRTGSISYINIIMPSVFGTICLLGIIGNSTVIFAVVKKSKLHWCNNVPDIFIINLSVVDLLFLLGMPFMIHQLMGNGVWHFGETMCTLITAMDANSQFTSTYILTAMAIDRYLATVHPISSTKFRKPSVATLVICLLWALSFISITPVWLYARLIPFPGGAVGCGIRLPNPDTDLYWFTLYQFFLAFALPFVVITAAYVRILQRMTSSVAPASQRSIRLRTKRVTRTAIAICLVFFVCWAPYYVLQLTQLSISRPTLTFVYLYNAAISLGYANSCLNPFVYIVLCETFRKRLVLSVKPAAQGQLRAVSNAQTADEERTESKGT
Sequence of Vasopressin V1a receptor (Homo sapiens) (P37288 whole entry, looked up): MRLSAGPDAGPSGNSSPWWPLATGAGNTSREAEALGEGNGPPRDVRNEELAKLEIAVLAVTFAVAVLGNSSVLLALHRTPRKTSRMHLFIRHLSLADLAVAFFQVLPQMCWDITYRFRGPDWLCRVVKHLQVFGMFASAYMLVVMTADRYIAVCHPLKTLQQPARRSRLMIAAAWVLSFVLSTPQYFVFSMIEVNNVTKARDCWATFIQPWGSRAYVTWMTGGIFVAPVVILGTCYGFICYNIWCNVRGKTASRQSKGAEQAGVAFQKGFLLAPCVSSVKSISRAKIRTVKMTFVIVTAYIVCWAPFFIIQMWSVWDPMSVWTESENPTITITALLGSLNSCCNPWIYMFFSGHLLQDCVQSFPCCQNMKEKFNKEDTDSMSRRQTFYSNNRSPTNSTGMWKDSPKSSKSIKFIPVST
Sequence of Adenosine receptor A2a (Homo sapiens) (P29274 whole entry): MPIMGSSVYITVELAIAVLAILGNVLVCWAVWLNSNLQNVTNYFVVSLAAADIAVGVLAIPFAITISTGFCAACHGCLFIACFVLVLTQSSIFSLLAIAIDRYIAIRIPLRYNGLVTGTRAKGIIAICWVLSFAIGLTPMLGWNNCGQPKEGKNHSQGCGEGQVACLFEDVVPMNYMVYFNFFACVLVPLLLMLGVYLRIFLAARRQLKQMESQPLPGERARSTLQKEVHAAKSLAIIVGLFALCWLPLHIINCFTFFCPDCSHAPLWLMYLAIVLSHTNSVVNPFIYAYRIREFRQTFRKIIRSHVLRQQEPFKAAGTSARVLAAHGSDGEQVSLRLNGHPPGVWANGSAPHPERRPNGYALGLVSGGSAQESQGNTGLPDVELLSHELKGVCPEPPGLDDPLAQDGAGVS

O=C(O)COc1ccc(Br)cc1C(=O)c1cnn(-c2ccccc2)c1
Papp B→A [1]: 13 ×10⁻⁶ cm/s
bioavailability [2]: 84%
IC50 [3]: 1.5 nM
IC50 [4]: 24 nM
inhibition in vivo at 30 mg/kg [5]: 62%
inhibition [6]: < 30%
inhibition [7]: < 30%
inhibition [8]: < 30%
inhibition [9]: < 30%
inhibition [10]: < 30%
inhibition [11]: < 30%
inhibition [12]: < 30%
inhibition [13]: < 30%
inhibition [14]: < 30%
inhibition [15]: < 30%
